Tests used:
Format in all cases: in vivo, mouse
[1] = tested on: TNFα; assay: UVB psoriasis model: cutaneous TNFα by ELISA; settings: for suppression of UVB-induced TNF-α level: 40 μM topical
From the text: (§1) Inbred, 6-8 weeks of age female C57/BL6, C3H/HeN and Skh:hr-1 (hairless) mice were fed normal stock rodent rations and tap water ad libitum. One day prior to UVB irradiation, the dorsal hair of C57/BL6 and C3H/HeN mice was removed by clipping. A single UVB tube (Phillips TL-40W/12 RS, Eindhoven, The Netherlands) emitting a spectrum of 280-365 nm with a peak emission at 310 nm, was used as the light source for the experiments. The radiation was filtered through a sheet of 0.125 mm cellulose acetate (Grafix Plastics, OH, USA) to block wavelengths below 290 nm. Irradiance was measured with an IL 1500 radiometer (International Light Inc. Newburyport, Mass.) with a UVB detector (SEE 240/UVB) calibrated to the spectral output, and recorded as 1.71×10-4 W/cm2. Groups of three female C57/BL6 and C3H/HeN mice were exposed unrestrained in their cages to 7.24 kJ/m2 UVB radiation equal to 3× the minimal erythemal dose (MED) in these haired mice (fur clipped), an exposure of approximately 70 min. Control mice were clipped of fur in the same manner but were not exposed to UVB irradiation. Groups of 3 Skh:hr-1 mice received 3.59 kJ/m2 of UVB, which is equal to 3×MED on hairless mouse skin. Temperature under the radiation source was stabilised during the exposures with surrounding curtains and an electric fan.
Cpd. 18 was dissolved as a 40 mM stock solution in DMSO, then diluted in a vehicle of propylene glycol-ethanol-water 1:2:1 to provide solutions of 0, 5, 10, 20 and 40 μM with […]. The vehicle control base lotion contained 0.001% DMSO. An aliquot of 100 μL of lotion was applied to the dorsum of three mice immediately, 1 h and 2 h after UVB irradiation for 24 h time point measurements, or once daily immediately after and for up to the next four days following irradiation, for later time points, and was spread evenly using a micropipette. Control mice were restrained in the same manner but were not exposed to UVB irradiation.
To determine the effect of UVB irradiation on cutaneous TNFα expression, groups of three C57/BL6 and C3H/HeN mice were euthanased before and at several time points up to 72 h following UVB irradiation, with and without topical treatment with 20 μM Cpd. 18, and the mid-dorsal skin was excised. […] Colour development was stopped after 30 min with 50 μL of 1M H2SO4, and quantitated spectrophotometrically at 405 nm. […]

[2] = tested on: TNFα, IL-6 and P-cadherin mRNAs; assay: UVB psoriasis model: RT-PCR of TNF-α, IL-6 and P-cadherin mRNAs in skin; settings: 20 μM lotion topical at 0, 1 and 2 h post-irradiation
From the text: as §1
Cpd. […]

[3] = tested on: SJL/J mice (EAE); assay: Experimental autoimmune encephalomyelitis (EAE), PLP 139-151; settings: 20 μM, 100 μl topical daily
Procedure: EAE induction was carried by immunisation with PLP 139-151 ([…]-NH2) in incomplete Freund's adjuvant (Sigma) supplemented with 4 mg/ml of Mycobacterium tuberculosis (strain H37Ra) as described previously, Groups of 6 female mice aged 4-5 weeks old were immunised, and body weight and the development neurological signs were monitored daily for 6 weeks. Clinical signs were scored according to an established scale:
Cpd. 18 was made up to a concentration of 20 μM in a vehicle of propylene glycol-ethanol-water (1:2:1) with 0.001% DMSO). An aliquot of 100 μl either of Cpd. 18 in vehicle, or the vehicle alone, was applied to the mouse dorsum (six mice per group) for 5 days before the immunisation (with PLP 139-151) and daily post-immunisation for 48 days.

## COc1ccc(C2=Cc3ccc(O)cc3OC2)cc1OC [Cpd. 18, 7-Hydroxy-3′,4′-dimethoxyisoflav-3-ene]
[1]; C3H/HeN, 3 h post-UVB
  suppression of UVB-induced TNF-α level: 40%
[1]; C57/BL6, 3 h post-UVB
  suppression of UVB-induced TNF-α level: 45%
[1]; 5-40 μM, dose-dependent, each mouse strain, 3 h post-UVB
  UVB-elevated TNFα levels: significantly reduced
[1]; without UVB
  TNFα expression, lotion alone: no effect
[2]
  production of TNFα, IL-6 and P-cadherin mRNAs post-UVB: markedly reduced
[3]
  disease course: chronic relatively stable disease
[3]; acute phase and first relapse at 28-36 days
  severity of clinical signs: tended to reduce the severity

From patent US20090233999A1, “COMPOSITIONS AND THERAPEUTIC METHODS INVOLVING ISOFLAVONES AND ANALOGUES THEREOF” (NOVOGEN RESEARCH PTY LTD, priority 1999, published 2009)
